The subject of one data set is gallbladders of mice. In words: gallbladder filling in normal mice. As to conditions: 200 mg/kg ip, normal mice fasted overnight, gallbladders removed 30 min later, n = 10. The class given is in vivo. The text has this: Fig 1 WB403 activated TGR5 and promoted active GLP-1 secretion. (A) WB403 stimulated hTGR5 in CRE-luciferase report system at the concentration range of 1–20 μmol/l. (B) WB403 stimulated hTGR5 specific cAMP accumulation at the concentration range of 1–50 μmol/l. n = 3. **p<0.01, ***p<0.001 vs. DMSO (+TGR5) group. (C) The hTGR5 targeted CRE-luciferase activity of WB403 and ZY403. […] (D) Effect of WB403 and ZY403 on gallbladders of mice. Normal mice were fasted overnight and treated with compounds (200 mg/kg) or vehicle (DMSO) by ip injection. Gallbladders (GB) were removed 30 min later and volumes measured then normalized to body weight (B.W.). n = 10. **p<0.01 vs. vehicle group. (E) Structure of WB403 and ZY403. WB403 promoted GLP-1 secretion in NCI-H716 cells (F), primary enterocytes (G), and MIN6 cells (H). n = 3. *p<0.05, **p<0.01, ***p<0.001 vs. vehicle group. (I) WB403 promoted GLP-1 in ICR mice. n = 5. **p<0.01 vs. vehicle group. Values represent mean ± SEM.

The test system of the next data set is primary enterocytes. Description: active GLP-1 secretion in primary enterocytes. The settings on record: Fig 1G. The class given is cell-based. How it is done: Endocrine differentiation was induced by seeding NCI-H716 cells in plates coated with Matrigel (Becton Dickinson). Cells were washed with RPMI-1640 medium without FBS and incubated in the same medium containing indicated compounds at 10 μmol/l. The condition medium was collected after 30 min. GLP-1 secretion in MIN6 or primary enterocytes was conducted similarly. To isolate primary enterocytes, ileum or colon was cut into 2 cm length, rinsed by PBS (pH7.2∼7.4) before dispersed in 10 mmol/l EDTA/PBS (pH7.4) for 15 min at room temperature, followed by pipetting up and down. Enterocytes were collected by filtration through a 70 μm cell strainer. To study the effect of WB403 on GLP-1 secretion in vivo, mice in group of three were fasted overnight and orally received 0, 50, 100 mg/kg of WB403 dispersed in 0.5% CMC with a DPP-4 inhibitor (5 mg/kg). There were 5 animals in each group. 2 g/kg glucose was administrated 30 min later and blood was collected 10 min after glucose challenge.
The GLP-1 (active) ELISA kit was purchased from Millipore, and insulin ELISA kit was from Mercodia. For quantitative determination of cAMP, a competitive enzyme immunoassay kit from R&D system was used. All immunoassays were performed according to manufacturers’ instructions.

The nature of data set [1]: pharmacokinetic test in Sprague-Dawley rats. The format is in vivo. As to conditions: male, plasma, rat. How it is done: Adult male Sprague-Dawley rats fasted for 12 h were randomized into two groups (n = 5) for intravenous injection (i.v.) or oral administration (p.o.). Blood samples were collected from the orbital plexus at 10, 20, 30, 40, 60, 90, 120, 150, 180, 240, 360 and 480 min after administration. The concentration of WB403 in plasma was determined by an Aligent Technologies 1260 series HPLC system with a DAD detector. The oral bioavailability (F%) was calculated as F (%) = AUC0-∞(p.o.) / AUC0-∞(i.v.) × Dose (i.v.) / Dose (p.o.).

The target of a further data set is T1, hGPR40 (Homo sapiens, UniProt O14842).
T1 construct: expressed in transfected cells
Description: GPR40-dependent calcium mobilization in 293-GPR40 stable cells. The format is cell-based. The settings on record: 5, 10, 50 μmol/l. How it is done: For human TGR5 luciferase (luc) assay, 293T cells were co-transfected with pCRE-luc, pTGR5 (kind gift from Prof. Johan Auwerx, Ecole Polytechnique Fédérale de Lausanne, Lausanne, Switzerland) and pRenilla (Promega, USA). WB403 was added 5 h later. Cells were harvested after 16 h and subjected to luciferase analysis on Lumistar Optima chemiluminescent detector (BMG labtech, Germany). For cAMP testing, 293T cells transiently transfected with pTGR5 or pGPR119 (GeneCopoeia, USA) were washed by FBS-free DMEM, and stimulated with WB403 in FBS-free DMEM containing 3-isobutyl-1-methyl-xanthine (IBMX, Sigma). Cell lysates were collected 30 min later and used for cAMP ELISA assay. FLIPR Calcium 5 assay kit (Molecular Devices, USA) was used for calcium mobilization assay. 293-GPR40 stable cells (kindly provided by Prof. Naiming Zhou of Zhejiang University, Hanzhou, China) or 293 cells transient transfected with GPR120 were seeded at 50,000 cells per well in black-walled clear-bottomed 96-well plates (Costar). An equal volume of loading buffer containing Fluo 4-AM was added the following day and cells were incubated for 1 h before stimulated with compounds. Increase of the intracellular Ca^2+ concentration was monitored by Flexstation 3 system (Molecular Devices, USA).
Fig 6 Effect of WB403 on GPCRs related to GLP-1 secretion. (A) GPCR expression in human NCI-H716 and mouse MIN6 cells. […]

[2] abbreviates: iv, i.v. 40 mg/kg, mean ± SEM, n = 5.
[3] abbreviates: po, p.o. 40 mg/kg, mean ± SEM, n = 5.

“Also recorded” adds a separate entry of the source.

T1 sequence (O14842 whole entry): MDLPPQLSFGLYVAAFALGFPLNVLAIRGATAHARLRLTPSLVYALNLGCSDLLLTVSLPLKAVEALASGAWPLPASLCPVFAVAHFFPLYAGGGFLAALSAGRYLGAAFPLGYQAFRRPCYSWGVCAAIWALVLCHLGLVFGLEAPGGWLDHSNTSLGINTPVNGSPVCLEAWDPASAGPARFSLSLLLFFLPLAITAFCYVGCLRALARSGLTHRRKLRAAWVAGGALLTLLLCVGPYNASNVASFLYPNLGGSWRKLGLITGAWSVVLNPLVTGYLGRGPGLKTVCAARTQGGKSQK

As usually defined, the AUC(0-inf) is the area under the concentration-time curve extrapolated to infinity. In general, AUC(0-t) refers to the area under the concentration-time curve up to a stated or last time point. Low readings indicate low exposure, high ones high exposure. A word on the half-life: it is how long it takes for the measured level to halve. As a reminder, the bioavailability is dose-corrected exposure relative to a reference, in per cent. The low end stands for little systemic uptake, the high end for much systemic uptake. A word on the Cmax: it is the highest concentration seen after dosing. As usually defined, the Tmax is the time at which the peak concentration occurs. On to `CCc1cc(-c2nc(C)c(COCc3ccc(Br)cc3)s2)ccn1` [WB403, 4-(5-((4-bromobenzyloxy)-methyl)-4-methylthiazol-2-yl)-2-ethylpyridine], for which the gallbladder filling entry in the data set with gallbladders of mice is reported as “did not”. Also, in the data set on primary enterocytes, the “GLP-1 stimulation in primary enterocytes” value is recorded as “outstanding effect in GLP-1 stimulation”. In data set [1] (setting [2]), this compound had an AUC(0-inf) of 26900 ng·h/mL, an AUC(0-t) of 25000 ng·h/mL, a C0 of 25700 ± 4600 ng/mL and a half-life of 2.77 ± 0.43 h. Also, the bioavailability in data set [1] (oral, p.o. 40 mg/kg vs i.v. 40 mg/kg, from AUC0-∞) is 12%. In data set [1] (setting [3]), the AUC(0-inf) is 3220 ng·h/mL, the AUC(0-t) is 2280 ng·h/mL, the Cmax turned out to be 980 ± 160 ng/mL and the Tmax is 1.4 h. The compound further gave a half-life in data set [1] (setting [3]) of 2.94 ± 1.08 h. In addition, the “hGPR40-Ca2+ activation (calcium mobilization)” value on hGPR40 was “neither did it exhibit significant effect; also recorded: no significant effect”.

These data come from publication PMC4514850, “A Novel TGR5 Activator WB403 Promotes GLP-1 Secretion and Preserves Pancreatic β-Cells in Type 2 Diabetic Mice” (PLoS ONE, 2015).
